{"source": "paper PMC9873282", "about": "“Design, synthesis and evaluation of quinoline-O-carbamate derivatives as multifunctional agents for the treatment of Alzheimer’s disease” (Journal of Enzyme Inhibition and Medicinal Chemistry, 2023)", "key": {"BV-2 cells": {"system": "BV-2 cells", "test": "Cytotoxicity on BV-2 cells (CCK8 assay)", "format": "cell-based", "conditions": "compounds at 2 µM", "protocol": "(§1) Firstly, the cytotoxicity of compounds 3a, 3c, 3e, 3f, 3k, 3m and 3n were tested using CCK8 assay.\nBV-2 cells were cultured in DMEM containing 10% foetal bovine serum, 100 U/mL penicillin, 100 U/mL streptomycin, and 1% nonessential amino acid at 37 °C with 5% CO2.\nBV-2 cells in logarithmic growth stage were digested and centrifuged, and then resuspended in DMEM medium containing 1% penicillin-streptomycin and 10% foetal bovine serum. The cells was adjusted to 1.2 × 10^4 cells/well, and then seeded evenly in 96-well cell culture plates. The cells were incubated for 36 h at 37 °C with 5% CO2. After incubation, the cells were added to different concentrations (10 and 2 µM) of tested compounds, and incubated for 24 h at 37 °C with 5% CO2. Then, 10 µL CCK-8 solution was added to each well, and incubated for another 1 h at 37 °C with 5% CO2. The OD values were tested at […]. The cell viability (%) = {(ODdrug−ODblank)}/{(ODcontrol−ODblank)} × 100%."}, "IL-6": {"system": "IL-6", "test": "IL-6 production in LPS-stimulated BV-2 cells (ELISA)", "format": "cell-based", "conditions": "1 µM and 2 µM; 1 µg/mL LPS 24 h", "protocol": "as §1\n(§2) BV-2 cells (2 × 10^5 cells/well) were seeded in a 24-well cell culture plates. The cells were divided into blank control group, model group (1 µg/mL LPS), LPS + 2 µM compound group, LPS + 1 µM compound group. Each drug group was pre-treated with corresponding concentration of drug solution for 8 h. After 8 h, the culture medium was aspirated out. Except for the blank control group, which was added with DMEM medium, the other groups were stimulated with 1 µg/mL LPS for 24 h. Then cell supernatant was aspirated and centrifuged at 3000 rpm for 3 min. The content of NO in cell culture supernatant was determined by Griess method, and the levels of cytokines IL-6 and IL-1β in cell culture supernatant were determined by IL-6 ELISA kit and IL-1β ELISA kit, respectively."}, "IL-1β": {"system": "IL-1β", "test": "IL-1β production in LPS-stimulated BV-2 cells (ELISA)", "format": "cell-based", "conditions": "1 µg/mL LPS 24 h", "protocol": "as §1, §2"}, "NO": {"system": "NO", "test": "NO release in LPS-stimulated BV-2 cells (Griess method)", "format": "cell-based", "conditions": "1 µg/mL LPS 24 h", "protocol": "as §1, §2"}, "hAChE": {"molecular_target": "T1, hAChE (Homo sapiens, UniProt P22303)", "T1 construct": "hAChE, from human erythrocytes AChE; purchased Sigma Aldrich; host or cells: human erythrocytes (natural source)", "T1 sequence (P22303 32-617 isoform P22303-2 limits assumed)": "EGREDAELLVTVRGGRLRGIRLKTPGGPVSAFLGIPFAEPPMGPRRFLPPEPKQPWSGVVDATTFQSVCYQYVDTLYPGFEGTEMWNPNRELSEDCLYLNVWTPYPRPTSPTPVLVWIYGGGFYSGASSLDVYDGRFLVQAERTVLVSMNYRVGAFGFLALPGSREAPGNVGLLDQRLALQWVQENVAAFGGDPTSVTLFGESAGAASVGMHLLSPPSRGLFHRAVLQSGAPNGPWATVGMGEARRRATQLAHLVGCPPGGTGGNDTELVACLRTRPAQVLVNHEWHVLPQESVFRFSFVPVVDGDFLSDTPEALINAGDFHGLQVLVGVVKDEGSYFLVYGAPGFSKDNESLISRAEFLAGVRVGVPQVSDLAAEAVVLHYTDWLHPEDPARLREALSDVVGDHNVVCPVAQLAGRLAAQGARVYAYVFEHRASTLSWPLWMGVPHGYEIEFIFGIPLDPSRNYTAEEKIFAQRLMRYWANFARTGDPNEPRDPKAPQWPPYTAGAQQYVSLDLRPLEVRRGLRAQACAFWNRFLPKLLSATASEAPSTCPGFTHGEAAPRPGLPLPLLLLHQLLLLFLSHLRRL", "test": "hAChE reversibility of inhibition (recovery after dilution)", "format": "biochemical"}, "eeAChE": {"molecular_target": "T2, eeAChE (Electrophorus electricus, UniProt O42275)", "T2 construct": "eeAChE, from the electric eel; purchased Sigma Aldrich; host or cells: electric eel (natural source)", "T2 sequence (O42275 24-633)": "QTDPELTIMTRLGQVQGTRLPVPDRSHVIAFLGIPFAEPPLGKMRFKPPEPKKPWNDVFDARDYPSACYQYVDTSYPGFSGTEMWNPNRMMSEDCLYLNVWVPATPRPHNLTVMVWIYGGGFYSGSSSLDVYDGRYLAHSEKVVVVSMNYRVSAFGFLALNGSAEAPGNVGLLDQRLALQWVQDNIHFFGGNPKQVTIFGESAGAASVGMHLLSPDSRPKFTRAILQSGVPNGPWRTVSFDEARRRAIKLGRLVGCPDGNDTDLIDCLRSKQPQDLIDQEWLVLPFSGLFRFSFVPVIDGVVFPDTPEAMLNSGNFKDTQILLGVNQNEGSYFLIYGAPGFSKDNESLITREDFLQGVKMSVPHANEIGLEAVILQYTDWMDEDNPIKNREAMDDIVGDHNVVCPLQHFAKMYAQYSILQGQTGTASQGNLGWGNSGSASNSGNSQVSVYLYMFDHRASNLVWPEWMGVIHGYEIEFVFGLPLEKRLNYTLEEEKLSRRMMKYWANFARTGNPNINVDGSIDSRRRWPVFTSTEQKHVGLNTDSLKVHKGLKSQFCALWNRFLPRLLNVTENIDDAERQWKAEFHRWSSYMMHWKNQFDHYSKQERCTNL", "test": "Enzyme kinetic study (Lineweaver-Burk) of eeAChE inhibition", "format": "biochemical, electric eel", "from_the_text": "In order to determine the mechanism of quinoline-O-carbamate derivatives, the representative compound 3f was chose to perform Lineweaver-Burk double reciprocal plot by plotting the initial velocities of the substrate at y-axis and increasing concentrations substrate at x-axis[27].\nFigure 7. Enzyme kinetic study on the mechanism of eeAChE inhibition by compound 3f. (A) Overlaid Lineweaver-Burk reciprocal plots of AChE initial velocity at increasing acetylthiocholine concentration in the absence and in the presence of 3f were determined."}, "[1]": {"test": "Stability in artificial gastrointestinal fluids", "format": "in vitro ADME", "conditions": "8 h incubation", "protocol": "Compound 3f was selected to investigate the stabilities by artificial gastrointestinal conditions and (human and rat) liver microsomes.\n• The artificial gastrointestinal fluids were prepared on the basis of the standard method described in China Pharmacopoeia (version 2015). The artificial gastric fluid consisted of HCl (0.045 mol/L) and pepsin (10 g/L), while the artificial intestinal fluid consisted of trypsin (10 g/L) and KH2PO4 (6.8 g/L), and the pH was adjusted to 6.8 with 0.1 mol/L NaOH. The blank gastric fluid and blank intestinal fluid was similar as described above without pepsin and trypsin. Compound 3f (1 mg/mL, n = 3) was incubated with artificial gastric fluid、blank gastric fluid 、artificial intestinal fluid and blank intestinal fluid at 37 ◦C, and 600 µL methanol was then added into the reagent to stop reaction at time of 0, 0.5, 1, 2, 3, 4, and 8 h. […] The data were processed by GraphPad Prism 8.0 software.\nUPLC-MS/MS method: Targeted analytes were separated using a Agilent xbridge aq C18 column (4.6 mm × 250 mm, 5 µm, USA) at a flow rate of 0.4 ml/min. The mobile phase consisted of solvent A (deionised water with 0.1% formic acid) and solvent B (acetonitrile with 0.1% formic acid). The gradient elution program was as follows: 0–0.5 min (10% B); 0.5–2.5 min (10–98% B); 2.5–3.5 min (98% B); 3.5–3.6 min ([…]); 3.6–5.0 min (10% B). The autosampler temperature was maintained at 12 °C and the injection volume was set at 1 µL.\nThe mass spectrometer was operated in positive ion mode through multiple-reaction monitoring. The parameters of the mass spectrometer were as follows: capillary ionisation voltage of 3500 V: source gas temperature of 300 °C gas flow of 11 L/min."}, "ACh": {"system": "ACh", "test": "ACh level in AlCl3-induced zebrafish AD model tissue", "format": "in vivo", "from_the_text": ". After the behavioural experiments, the 168hpf zebrafish were killed and ground, the tissue were used to test the AChE activity and ACh levels. […] ."}, "Rat plasma stability": {"test": "Rat plasma stability", "conditions": "after 3 h incubation", "description": "• 2.The stability of 3f was performed in rat liver microsomes. The rat liver microsomes was purchased from Dalian Meilun Biotechnology Co., Ltd, DaLian, China. […] Solution B (25 mL) contained G-6-P-DH (1000 U), Na-Citrate2 (200 mg), and H2O was used as a solvent. NADPH solution (1 mM) was composed by solution A and solution B (v/v = 5:1). […] The reaction was started by the addition of NADPH. The total mixture (200 µL) was incubated at 37 °C. Cold methanol (600 µL) was added at 0, 5, 15, 20, 30, 45 and 60 min, respectively, to stop the reaction. Samples were centrifuged at 13000 rpm for 10 min at 4 °C, and 100 µL supernatant was removed and analysed by UPLC-MS/MS. The stability results were presented as % remaining vs. time. The experiments were conducted in triplicate. • 3.The stability of 3f was performed in rat plasma. […] The supernatant was dried and redissolved in 100 µL methanol. After centrifugation, the supernatant was analysed by UPLC-MS/MS. The stability data were presented as remaining percentage vs time."}}}
{"compound": "CCN(CC)C(=O)Oc1cccc2ncccc12", "note": "[Compound 3f, Quinolin-5-yl diethylcarbamate]", "values": [{"measurement": "cell viability of BV-2 cells", "setting": "BV-2 cells", "value": "did not show obvious change"}, {"measurement": "levels of IL-6 compared with model group", "setting": "IL-6", "value": "significantly decreased"}, {"measurement": "levels of IL-1β compared with model group", "setting": "IL-1β", "value": "significantly decreased"}, {"measurement": "release volume of NO", "setting": "NO", "value": "significantly decreased"}, {"measurement": "reversibility of hAChE inhibition", "setting": "hAChE", "value": "reversible hAChE inhibitor"}, {"measurement": "hAChE activity restored", "setting": "hAChE; 0.1 × IC50, at 120 min", "value": 94.7, "unit": "%"}, {"measurement": "type of AChE inhibition", "setting": "eeAChE; Lineweaver-Burk plot", "value": "mixed-type"}, {"measurement": "Ki", "setting": "eeAChE; replot of slope versus concentration, read-out: inhibition constant Ki", "value": 1730, "unit": "nM"}, {"measurement": "remaining amount", "setting": "[1]; artificial gastric fluid", "value": 99.2, "unit": "%"}, {"measurement": "remaining amount", "setting": "[1]; artificial intestinal fluid", "value": 107.7, "unit": "%"}, {"measurement": "remaining amount", "setting": "[1]; blank gastric fluid", "value": 102.6, "unit": "%"}, {"measurement": "remaining amount", "setting": "[1]; blank intestinal fluid", "value": 103.4, "unit": "%"}, {"measurement": "ACh activity (level)", "setting": "ACh; 0.08 µM", "value": 16.4, "unit": "pmol/L"}, {"measurement": "ACh activity (level)", "setting": "ACh; 0.16 µM", "value": 18.4, "unit": "pmol/L"}, {"measurement": "ACh activity (level)", "setting": "ACh; 0.32 µM", "value": 15.4, "unit": "pmol/L"}, {"measurement": "remaining amount in rat plasma", "setting": "Rat plasma stability", "value": 95.5, "unit": "%"}]}
